In patent US20220160703A1, “TUMOR-SELECTIVE COMBINATION THERAPY” (The Board of Regents of The University of Texas System, priority 2019, published 2022):

Key:
[1] = test system: NQO1 negative cell lines Panc02 and B16; test: Cell viability/survival of NQO1 negative murine tumor lines (SRB); assay type: cell-based; settings: β-lap 0-8 μM, SRB 4 days later
Description: (FIG. 1A) NQO1 positive tumor cell lines MC38, TC-1 and Ag104Ld and NQO1 negative cell lines Panc02 and B16 grown in 48-well plates were treated with β-lap (0-8 μM) for a 3 hr followed by washing and replacing medium. Cell viability was determined by Sulforhodamine B (SRB) Assay 4 days later. […] (FIG. 1C) MC38 cells with CRISPR-based NQO1 Knockout (MC38 NQO1KO #5) planted in 96-well plates were exposed to β-lap for 3 hr and cell survival was assessed 48 hr later. […] (FIG. 1E) MC38 cells were exposed to a lethal dose of β-lap (4 μM) for indicated times, then stained with 7-AAD and Annexin V followed by flow cytometry analysis. […] (FIG. 1H) MC38 and B16 NQO1 #1 cells were exposed to β-lap for a 3 hr. Catalase (1000 U/ml) was added and cell survival was assessed 48 hr later. […] Tumor growth was monitored twice a week.
(§1) (FIG. 8A) NQO1 expression in multiple murine tumor lines was immunoblotted as indicated. […] Drugs were removed and survival assessed 5 days later. (FIG. 8C) Relative H2O2 levels were assessed in various cells treated with β-lap for 3 h at the indicated doses using CellRox-Glo. […] (FIG. 8D) TC-1 cells exposure to β-lap for 12 h, later PARP-1 and Caspase-3 levels were analyzed by western blotting assay. […]
(FIGS. 14A-C) NQO1 cells MC38 (A) and TC-1 (B) and NQO1^− cells B16 (C) were treated for 2 h with various doses of IB-DNQ±DIC (50 μM). Drugs were removed and survival assessed 6 days later. […]

[2] = test system: NQO1 positive tumor cell lines MC38, TC-1 and Ag104Ld; assay type: cell-based
Description: (§2) (FIG. 1A) NQO1 positive tumor cell lines MC38, TC-1 and Ag104Ld and NQO1 negative cell lines Panc02 and B16 grown in 48-well plates were treated with β-lap (0-8 μM) for a 3 hr followed by washing and replacing medium. Cell viability was determined by Sulforhodamine B (SRB) Assay 4 days later. […] (FIG. 1C) MC38 cells with CRISPR-based NQO1 Knockout (MC38 NQO1KO #5) planted in 96-well plates were exposed to β-lap for 3 hr and cell survival was assessed 48 hr later. […] (FIG. 1E) MC38 cells were exposed to a lethal dose of β-lap (4 μM) for indicated times, then stained with 7-AAD and Annexin V followed by flow cytometry analysis. […] (FIG. 1H) MC38 and B16 NQO1 #1 cells were exposed to β-lap for a 3 hr. Catalase (1000 U/ml) was added and cell survival was assessed 48 hr later. (FIG. 1I) C57BL/6 mice (n=5/group) were transplanted with MC38 cells and treated with β-lap (0.03 mg, 0.1 mg or 0.3 mg, intratumorally; or 25 mg/kg, i.v.) every other day for four times. […] Tumor growth was monitored twice a week.
as §1
(FIGS. 14A-C) NQO1 cells MC38 (A) and TC-1 (B) and NQO1^− cells B16 (C) were treated for 2 h with various doses of IB-DNQ±DIC (50 μM). Drugs were removed and survival assessed 6 days later. […] (FIGS. 14E-F) Relative NAD^+ (E) or ATP (F) levels were assessed in TC-1 cells exposed to various doses of IB-DNQ for 2 h. […] Comet tail lengths in a.u. were monitored at indicated time; and DSBs quantified by γH2AX foci/nuclei using immunofluorescence at indicated time (FIG. 14H). […]
(FIG. 21A) Viability of murine cell lines following IB-DNQ treatment for 4 h. […] (FIGS. 21D-E) DNA double strand break was assessed via comet assay (FIG. 21D) and γH2AX foci/nuclei immunofluorescence (FIG. 21E). […]

MC38 cells = test: 7-AAD and Annexin V cell death, flow cytometry; assay type: cell-based, murine; settings: lethal dose of β-lap (4 μM)
Description: as §2
(FIG. 21A) Viability of murine cell lines following IB-DNQ treatment for 4 h. […] (FIGS. 21D-E) DNA double strand break was assessed via comet assay (FIG. 21D) and γH2AX foci/nuclei immunofluorescence (FIG. 21E). (FIG. 21F) MC38 cell death after a 4 h exposure to IB-DNQ was determined by 7AAD and Annexin V staining using flow cytometry analysis.

CC1(C)CCC2=C(O1)c1ccccc1C(=O)C2=O [β-lap, β-lapachone]
response to 3 h β-lap exposure (cell viability) [1]: resistant
response to 3 h β-lap exposure (cell viability) ([2]; β-lap 0-8 μM, 3 hr, SRB 4 days later): sensitive
cell killing ([2]; β-lap 3 h ± DIC 50 μM, survival 5 days later): selectively killed
mode of cell death (MC38 cells): rapid cell swelling, membrane rupture and Annexin V+/7AAD+ cell death without caspase activation
